Results reported in patent publication US20150173356A1, “COMPOSITIONS OF VOLATILE ORGANIC COMPOUNDS AND METHODS OF USE THEREOF” (Synthetic Genomics, Inc., priority 2009, published 2015).

How the values were obtained:
Experiment in all cases: Petri plate (PDA) volatile bioassay, liquid in a small cup in the centre of the plate
Type in all cases: cell-based
Conditions in all cases: 2.5-20 microliters in cup, sealed plate, 3 days
Pythium ultimum = tested on: Pythium ultimum
Experimental: (§1) To test the bioactivity, the mixture was placed in a small cup in the center of a Petri plate with potato dextrose agar (PDA) (Strobel et al., 2001 Microbiology 147: 2943-2950). The volumes of liquid tested were 0, 2.5, 5.0, 10.0 and 20 microliters as per Strobel et al., supra. Then small cubes of fungal inoculum grown on PDA were also applied to the plate. The plates were sealed with parafilm and incubated for 3 days, at which time measurements of hyphal development were made. Also, after 3 days the small plug of fungal inoculum was removed from the plate and transferred to a fresh PDA plate to determine if the test fungus was still alive (capable of growth) and this was recorded.

Phytophthora palmivora = tested on: Phytophthora palmivora
Experimental: as §1

Ganoderma boninense = tested on: Ganoderma boninense
Experimental: as §1

CC(C)C(=O)O [isobutyric acid, 2-methyl propanoic acid]
inhibited: growth inhibition (hyphal development) (Pythium ultimum) | growth inhibition (hyphal development) (Phytophthora palmivora) | growth inhibition (hyphal development) (Ganoderma boninense)
not killed: test fungus still alive (capable of growth) after transfer of inoculum plug to fresh PDA (Pythium ultimum) | test fungus still alive (capable of growth) after transfer of inoculum plug to fresh PDA (Phytophthora palmivora) | test fungus still alive (capable of growth) after transfer of inoculum plug to fresh PDA (Ganoderma boninense)

COC(=O)C(C)C [methyl isobutyrate, methyl-2-methylpropanoate]
no growth inhibition: growth inhibition (hyphal development) (Pythium ultimum) | growth inhibition (hyphal development) (Phytophthora palmivora) | growth inhibition (hyphal development) (Ganoderma boninense)
